Assay results reported in article PMC7497692 (Investigational New Drugs, 2020).
“And” between values parts separate entries of the source, which are not always exact repeats. Equal values may be shown once.

Tests used:
[1] = Mass balance: excretion of radioactivity in urine and feces after oral [14C]-tepotinib (part A); assay type: in vivo, human healthy male volunteers
Protocol: (§1) Participants were hospitalized from day 1 to day 16 of the study, and further assessed on days 19, 22, and 25 (trial end). […] Pre-dose feces and urine samples were collected on day 1 and day 2, respectively. Urine was collected at 4- to 12-h intervals on day 1 and every 24 h thereafter up to day 16. Feces were collected every 24 h up to day 16. Provision was made to collect further samples up to day 39 if >1% of the administered dose was detectable in the total (urine and feces) excreta per day on two consecutive measurements.
Total radioactivity in blood, plasma, urine, and feces samples, and quick counts in urine and feces samples were determined at the bioanalytical laboratory of PRA (Assen, The Netherlands) using liquid scintillation counting (LSC). Scintillation cocktail Ultima Gold™ (5 mL; Perkin Elmar, Waltham, Massachusetts, USA) was directly spiked into 250 μL plasma and 1000 μL urine samples, respectively, whereas 300 μL aliquots of blood samples were solubilized and decolorized before adding 18 mL of the scintillation cocktail prior to LSC. Feces samples were (quantitatively) homogenized with one or two weight equivalents of water, and an accurately weighted aliquot of approximately 500 mg of the homogenate was dried at 50 °C for at least 3 h. After addition of 100 μL combustion aid, the dried samples were combusted in a sample oxidizer model 307 (Perkin Elmer, Waltham, Massachusetts, USA) using 7 mL CarboSorb® E as an absorber agent for carbon dioxide. At the end of the combustion cycle, the absorber was mixed with 13 mL of the scintillant PermaFluor® E. All scintillation counting using either low-level or normal count modes was carried out in duplicate using a Tri-Carb 3100 TR liquid scintillation analyzer (Perkin Elmer, Waltham, Massachusetts, USA), in compliance with analytical procedures validated by the PRA.
The maximum plasma concentration (Cmax) and time to reach maximum concentration (tmax) were derived directly from the plasma concentration–time data. Lag time (tlag) was the time prior to the first measurable (non-zero) concentration. The area under the plasma concentration–time curve from 0 to t (last measurable concentration; AUC0–t) was calculated using a mixed log–linear trapezoidal method. Area under the plasma concentration–time curve until the last sampling time (AUCall), which corresponds to AUC0–240 h within the observation period, was used for metabolite calculations. Amounts excreted in urine, feces, and total (urine + feces) were calculated as the sum of amounts (concentration multiplied by volume) for each collection from time 0 to time t. The terminal rate constant (λz) was used to estimate the terminal half-life (t½) (ln 2/λz), and the area under the concentration–time curve from time 0 to infinity (AUC0–∞). Total body clearance (CL) and apparent body clearance (CL/f) were determined by dose/AUC0–∞, and total volume of distribution (Vz) and apparent volume of distribution (Vz/f) were calculated by dose/(AUC0–∞*λz) after IV and oral administration, respectively. Volume of distribution of the central compartment (Vc) was derived by dividing the dose by the initial drug plasma concentration after IV administration. Absolute bioavailability was calculated as F = (AUCoral/doseoral)/(AUCIV/doseIV) × 100. The ratios (%) AUCtepotinib or metabolite/AUCtotal radioactivity were calculated as a percentage of the molar AUCs.

[2] = Oral PK of tepotinib and total radioactivity in plasma and blood (part A); assay type: in vivo, human healthy male volunteers; settings: min–max, n=6
Protocol: as §1
In brief, the isotopically labeled internal standard [^2H]-MSC2156119A was added to 20 μL K2-ethylenediaminetetraacetic acid (EDTA) plasma. […] Samples were centrifuged and 10 μL aliquots of the supernatant were injected onto an Acquity Charged Surface Hybrid™ (CSH) C18 column (2.1 × 50 mm; […]; Waters, Milford, Massachusetts, USA). Separation was carried out using a mobile phase gradient (eluent A: water/formic acid [100 + 1, v/v]; eluent B: acetonitrile/formic acid [100 + 1, v/v]) with a flow rate of 0.6 mL/min. […] The lower limit of quantification (LLOQ) was 5.00 ng/mL, and the calibration standard responses were linear over the range between 5.00 and 2500 ng/mL using a weighted (1/x^2) linear regression.
Total radioactivity in blood, plasma, urine, and feces samples, and quick counts in urine and feces samples were determined at the bioanalytical laboratory of PRA (Assen, The Netherlands) using liquid scintillation counting (LSC). Scintillation cocktail Ultima Gold™ (5 mL; Perkin Elmar, Waltham, Massachusetts, USA) was directly spiked into 250 μL plasma and 1000 μL urine samples, respectively, whereas 300 μL aliquots of blood samples were solubilized and decolorized before adding 18 mL of the scintillation cocktail prior to LSC. Feces samples were (quantitatively) homogenized with one or two weight equivalents of water, and an accurately weighted aliquot of approximately 500 mg of the homogenate was dried at 50 °C for at least 3 h. […]
The maximum plasma concentration (Cmax) and time to reach maximum concentration (tmax) were derived directly from the plasma concentration–time data. […] The area under the plasma concentration–time curve from 0 to t (last measurable concentration; AUC0–t) was calculated using a mixed log–linear trapezoidal method. […] Amounts excreted in urine, feces, and total (urine + feces) were calculated as the sum of amounts (concentration multiplied by volume) for each collection from time 0 to time t. […] Total body clearance (CL) and apparent body clearance (CL/f) were determined by dose/AUC0–∞, and total volume of distribution (Vz) and apparent volume of distribution (Vz/f) were calculated by dose/(AUC0–∞*λz) after IV and oral administration, respectively. […]

[3] = design: method as in printed; settings: preclinical results, bile-canaliculated rats, [14C]-tepotinib; ref not given; cited from earlier work
[4] = geometric mean of n=6, % of total radioactive dose, oral part A, listed as [^14C]-tepotinib
[5] = individual subjects 1–6, % of total radioactive dose, single oral 498 mg tepotinib + 2.67 MBq [14C]-tepotinib
[6] = maximum of n=6, % of total radioactive dose, oral part A
[7] = median of n=6, % of total radioactive dose, oral part A, listed as [^14C]-tepotinib
[8] = minimum of n=6, % of total radioactive dose, oral part A
[9] = range of n=6, % of oral [14C]-tepotinib dose
[10] = tepotinib in plasma, median, single oral 498 mg capsules

Compound: CN1CCC(COc2cnc(-c3cccc(Cn4nc(-c5cccc(C#N)c5)ccc4=O)c3)nc2)CC1 [Tepotinib]
- time up to which radioactivity was observed in urine ([1]; after dosing, below LLOQ at 312 and 336 h in two participants): up to 360 h
- time of first radioactivity detected in feces ([1]; after oral dose, part A): 24 to 48 h
- time within which radioactivity was observed in urine ([1]; first collection period, part A): ≤ 4 h
- Ae0–t total, Geometric mean ([1]; geometric mean of n=6, % of total radioactive dose, oral part A): 91.90%
- Ae0–t feces, Geometric mean [1, 4]: 77.9% and 77.87%
- Ae0–t urine, Geometric mean [1, 4]: 13.6% and 13.61%
- radioactivity not recovered ([1]; geometric mean, pie chart Fig. 1, oral part A): 8.5%
- Ae0–t feces [1, 5]: 79.48% and 77.92% and 69.40% and 76.89% and 82.53% and 81.76%
- Ae0–t total (urine + feces) [1, 5]: 88.28% and 91.60% and 87.12% and 93.36% and 94.46% and 96.93%
- Ae0–t urine [1, 5]: 8.80% and 13.68% and 17.72% and 16.47% and 11.93% and 15.17%
- Ae0–t feces, Max [1, 6]: 82.53%
- Ae0–t total, Max [1, 6]: 96.93%
- Ae0–t urine, Max [1, 6]: 17.72%
- Ae0–t feces, Median [1, 7]: 78.7%
- Ae0–t total, Median [1, 7]: 92.5% and 92.48%
- Ae0–t urine, Median [1, 7]: 14.4% and 14.43%
- Ae0–t feces, Min [1, 8]: 69.40%
- Ae0–t total, Min [1, 8]: 87.12%
- Ae0–t urine, Min [1, 8]: 8.80%
- time up to which excretion of radioactivity in feces was noted ([1]; post-dose, all participants, part A): up to 360 h
- radioactivity excreted in feces, range [1, 9]: 69.4–82.5%
- radioactivity excreted in urine, range [1, 9]: 8.8–17.7%
- [14C]-tepotinib dose recovered in excreta per day ([1]; two consecutive measurements, days 15 and 16, all subjects): < 1%
- t½ ([2]; tepotinib in plasma, geometric mean (geometric CV%), single oral 498 mg capsules): 33 h
- tlag [2, 10]: 2 h
- tmax [2, 10]: 9 h
- tlag ([2]; total radioactivity in plasma, median, oral part A): 2.5 h
- biliary excretion of radioactivity [3]: a predominant fraction of radioactivity is excreted unchanged via the bile
